# What was measured:
# [1] = Qualitative solubility comparison of monomeric photoinitiators; assay type: physicochemical; settings: photoinitiator monomer; concentration and temperature printed in the cell
# Method: 100 mg of photoinitiator monomer sample was placed in a vial and appropriate amount of solvent was added. The vial was stirred at ambient temperature (20° C.) overnight or warmed with a hot air gun to 60° C. for 10 minutes. The qualitative solubility of the sample was then judged based on residual undissolved material in the vial.
Structure (SMILES),UV absorption wavelength (350-400 nm band region),E1^1 (extinction coefficient of absorption) (at the stated absorption wavelength),water solubility [1]
CCCOc1ccc(Cl)c2c(=O)c3ccccc3sc12 [1-chloro-4-propoxy thioxanthone],387 nm,175,
"O=C(c1ccccc1)c1ccc(OCCCN(CCO)CCO)cc1 [Preparatory Example 1, 4-{3-[bis(2-hydroxyethyl)amino]propoxy}benzophenone]",,,sparingly soluble at 100 °C
"O=c1c2ccccc2sc2c(OCCCN(CCO)CCO)ccc(Cl)c12 [Preparatory Example 2, 4-{3-[bis(2-hydroxyethyl)amino]propoxy}-1-chloro-9H-thioxanthen-9-one]",,,sparingly soluble at 100 °C
